# From patent US12258328B2, “6-membered heteroaryl-containing aminopyridine compounds as EGFR inhibitors” (YUHAN CORPORATION, priority 2021, dated 2025)
# Where two headings read alike, the source gives them in different places.
# How the values were obtained:
# EGFR del19/T790M/C797S = EGFR del19/T790M/C797S (Homo sapiens, UniProt P00533, C797S/DEL746-750/T790M); test: Biochemical EGFR kinase assay (Lance Ultra TR-FRET), triple mutant del19/T790M/C797S
# Procedure, shortened: (§1)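 In this biochemical assay, phosphorylation after a one-hour room-temperature reaction was detected with europium-labelled anti-phosphopeptide antibody at 2 nM final concentration.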
# EGFR L858R/T790M/C797S = EGFR L858R/T790M/C797S (Homo sapiens, UniProt P00533, C797S/L858R/T790M); test: Biochemical EGFR kinase assay (Lance Ultra TR-FRET), triple mutant L858R/T790M/C797S
# Sequence of EGFR L858R/T790M/C797S (P00533 25-1210 T790M/C797S/L858R): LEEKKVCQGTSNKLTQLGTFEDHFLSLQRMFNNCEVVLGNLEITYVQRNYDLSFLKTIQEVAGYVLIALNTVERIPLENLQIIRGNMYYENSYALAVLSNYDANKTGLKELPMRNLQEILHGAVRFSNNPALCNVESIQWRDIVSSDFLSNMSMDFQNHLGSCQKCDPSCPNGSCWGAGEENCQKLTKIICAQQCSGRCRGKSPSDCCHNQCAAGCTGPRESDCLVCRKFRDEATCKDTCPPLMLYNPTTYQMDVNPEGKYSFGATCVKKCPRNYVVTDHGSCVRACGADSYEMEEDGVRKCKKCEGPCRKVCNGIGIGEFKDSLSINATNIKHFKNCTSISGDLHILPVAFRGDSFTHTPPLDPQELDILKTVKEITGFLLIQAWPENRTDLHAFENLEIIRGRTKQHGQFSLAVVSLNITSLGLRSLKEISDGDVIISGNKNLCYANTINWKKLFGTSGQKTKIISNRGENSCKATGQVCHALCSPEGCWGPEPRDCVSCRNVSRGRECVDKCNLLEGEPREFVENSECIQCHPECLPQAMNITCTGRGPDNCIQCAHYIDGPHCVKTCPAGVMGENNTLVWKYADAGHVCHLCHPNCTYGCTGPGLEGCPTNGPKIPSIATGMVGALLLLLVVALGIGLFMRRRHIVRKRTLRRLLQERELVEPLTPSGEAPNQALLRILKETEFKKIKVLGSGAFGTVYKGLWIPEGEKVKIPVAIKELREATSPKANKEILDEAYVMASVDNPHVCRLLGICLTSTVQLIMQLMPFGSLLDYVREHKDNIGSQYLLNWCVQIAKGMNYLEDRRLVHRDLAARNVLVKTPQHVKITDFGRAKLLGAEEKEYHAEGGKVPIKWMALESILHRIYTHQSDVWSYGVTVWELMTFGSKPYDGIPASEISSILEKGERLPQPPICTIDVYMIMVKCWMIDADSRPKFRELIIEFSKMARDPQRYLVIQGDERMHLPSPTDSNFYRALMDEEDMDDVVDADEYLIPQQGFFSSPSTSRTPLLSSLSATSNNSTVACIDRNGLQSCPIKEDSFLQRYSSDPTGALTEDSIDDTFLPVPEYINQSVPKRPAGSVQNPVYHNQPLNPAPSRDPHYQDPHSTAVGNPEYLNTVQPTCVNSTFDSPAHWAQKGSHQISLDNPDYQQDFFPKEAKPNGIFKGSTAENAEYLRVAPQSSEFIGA
# Procedure, shortened: as §1
# EGFR del19/C797S = EGFR del19/C797S (Homo sapiens, UniProt P00533, C797S/DEL746-750); test: Biochemical EGFR kinase assay (Lance Ultra TR-FRET), double mutant del19/C797S
# Sequence of EGFR del19/C797S (P00533 with tags, fused parts or gaps DEL746-750/C797S): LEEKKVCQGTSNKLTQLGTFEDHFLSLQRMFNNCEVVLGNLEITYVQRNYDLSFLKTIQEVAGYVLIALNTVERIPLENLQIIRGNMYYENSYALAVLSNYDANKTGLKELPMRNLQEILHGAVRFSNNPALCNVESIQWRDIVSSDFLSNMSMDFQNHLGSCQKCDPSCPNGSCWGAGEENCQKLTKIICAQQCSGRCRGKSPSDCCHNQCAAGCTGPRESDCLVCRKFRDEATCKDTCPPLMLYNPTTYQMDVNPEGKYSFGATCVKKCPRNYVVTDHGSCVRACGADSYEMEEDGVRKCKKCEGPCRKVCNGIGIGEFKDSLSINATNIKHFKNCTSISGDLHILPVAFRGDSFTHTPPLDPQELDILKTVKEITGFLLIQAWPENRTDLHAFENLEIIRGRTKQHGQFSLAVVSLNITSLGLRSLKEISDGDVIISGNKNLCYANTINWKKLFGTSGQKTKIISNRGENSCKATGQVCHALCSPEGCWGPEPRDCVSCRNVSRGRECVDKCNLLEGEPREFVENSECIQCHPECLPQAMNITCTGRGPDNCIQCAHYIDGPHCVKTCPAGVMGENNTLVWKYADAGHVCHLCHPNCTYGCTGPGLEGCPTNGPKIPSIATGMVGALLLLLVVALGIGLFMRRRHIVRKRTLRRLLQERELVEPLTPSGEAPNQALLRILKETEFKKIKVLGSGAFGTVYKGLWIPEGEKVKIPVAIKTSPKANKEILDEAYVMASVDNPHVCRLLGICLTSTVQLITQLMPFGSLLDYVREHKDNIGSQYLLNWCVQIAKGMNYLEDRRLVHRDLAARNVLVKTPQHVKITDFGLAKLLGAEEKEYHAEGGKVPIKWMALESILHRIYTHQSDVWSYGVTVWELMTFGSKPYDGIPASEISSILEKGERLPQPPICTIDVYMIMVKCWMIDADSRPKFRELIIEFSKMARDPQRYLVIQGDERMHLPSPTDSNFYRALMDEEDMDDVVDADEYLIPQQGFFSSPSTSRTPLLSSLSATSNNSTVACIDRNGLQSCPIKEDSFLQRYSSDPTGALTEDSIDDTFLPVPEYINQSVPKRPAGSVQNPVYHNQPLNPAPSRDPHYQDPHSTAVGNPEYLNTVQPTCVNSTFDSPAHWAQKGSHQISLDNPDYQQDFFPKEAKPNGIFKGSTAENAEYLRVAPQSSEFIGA
# Procedure, shortened: as §1
# EGFR L858R/C797S = EGFR L858R/C797S (Homo sapiens, UniProt P00533, C797S/L858R); test: Biochemical EGFR kinase assay (Lance Ultra TR-FRET), double mutant L858R/C797S
# Procedure, shortened: as §1
# EGFR wildtype = EGFR wildtype (Homo sapiens, UniProt P00533); test: Biochemical EGFR kinase assay (Lance Ultra TR-FRET), wildtype
# Sequence of EGFR wildtype (P00533 25-1210): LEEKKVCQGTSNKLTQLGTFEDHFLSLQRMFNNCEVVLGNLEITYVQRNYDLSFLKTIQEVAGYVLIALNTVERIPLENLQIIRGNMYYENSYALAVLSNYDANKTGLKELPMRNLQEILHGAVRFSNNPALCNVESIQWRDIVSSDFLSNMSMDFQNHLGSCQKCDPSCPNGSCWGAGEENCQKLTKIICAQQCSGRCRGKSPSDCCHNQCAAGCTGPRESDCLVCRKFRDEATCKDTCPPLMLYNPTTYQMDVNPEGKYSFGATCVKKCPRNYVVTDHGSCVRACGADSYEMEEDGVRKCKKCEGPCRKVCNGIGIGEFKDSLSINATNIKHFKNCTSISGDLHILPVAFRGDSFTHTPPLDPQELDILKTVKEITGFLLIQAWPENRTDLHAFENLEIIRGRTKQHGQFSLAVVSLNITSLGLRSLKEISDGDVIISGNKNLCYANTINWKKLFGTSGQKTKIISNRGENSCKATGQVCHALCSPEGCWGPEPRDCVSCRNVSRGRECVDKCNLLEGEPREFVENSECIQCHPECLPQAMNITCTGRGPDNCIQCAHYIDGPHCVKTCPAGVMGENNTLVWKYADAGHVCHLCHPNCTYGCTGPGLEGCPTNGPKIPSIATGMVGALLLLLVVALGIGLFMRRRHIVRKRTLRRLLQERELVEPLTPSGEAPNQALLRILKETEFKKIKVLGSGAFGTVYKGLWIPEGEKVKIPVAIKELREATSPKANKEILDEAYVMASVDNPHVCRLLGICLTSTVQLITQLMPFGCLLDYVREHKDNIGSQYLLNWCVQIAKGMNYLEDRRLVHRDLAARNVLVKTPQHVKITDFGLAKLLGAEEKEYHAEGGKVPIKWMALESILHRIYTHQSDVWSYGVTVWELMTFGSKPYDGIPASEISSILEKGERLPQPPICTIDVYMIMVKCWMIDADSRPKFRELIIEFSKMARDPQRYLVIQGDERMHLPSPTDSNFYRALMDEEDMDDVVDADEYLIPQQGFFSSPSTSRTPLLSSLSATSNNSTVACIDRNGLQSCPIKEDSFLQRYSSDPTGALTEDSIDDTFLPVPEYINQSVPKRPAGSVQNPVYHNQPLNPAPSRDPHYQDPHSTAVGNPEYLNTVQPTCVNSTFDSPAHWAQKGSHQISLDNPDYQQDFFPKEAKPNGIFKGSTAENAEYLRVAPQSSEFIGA
# Procedure, shortened: as §1
# [1] = IC50 del19/T790M/C797S (nM) 100 μM ATP, 100 μM ATP
# [2] = Km ATP, read-out: IC50 del19/T790M/C797S (nM) Km ATP
# [3] = IC50 L858R/T790M/C797S (nM) 100 μM ATP, 100 μM ATP
# [4] = IC50 del19/C797S (nM) 100 μM ATP, 100 μM ATP
# [5] = Km ATP, read-out: IC50 del19/C797S (nM) Km ATP
# [6] = IC50 L858R/C797S (nM) 100 μM ATP, 100 μM ATP
# [7] = Km ATP, read-out: IC50 L858R/C797S (nM) Km ATP
# [8] = IC50 WT (nM) 100 μM ATP, 100 μM ATP
# [9] = Km ATP, read-out: IC50 WT (nM) Km ATP
# [10] = Km ATP, read-out: IC50 L858R/T790M/C797S (nM) Km ATP
# [11] = IC50 del19/T790M/C797S, 100 μM ATP
# [12] = IC50 L858R/T790M/C797S, 100 μM ATP
# [13] = ATP at Km, read-out: IC50 del19/T790M/C797S, Km ATP
# [14] = ATP at Km, read-out: IC50 L858R/T790M/C797S, Km ATP
# [15] = ATP at Km, read-out: IC50 del19/C797S, Km ATP
# [16] = ATP at Km, read-out: IC50 L858R/C797S, Km ATP
# [17] = ATP at Km, read-out: IC50 WT, Km ATP
# Sequence of EGFR del19/T790M/C797S (P00533 with tags, fused parts or gaps DEL746-750/T790M/C797S): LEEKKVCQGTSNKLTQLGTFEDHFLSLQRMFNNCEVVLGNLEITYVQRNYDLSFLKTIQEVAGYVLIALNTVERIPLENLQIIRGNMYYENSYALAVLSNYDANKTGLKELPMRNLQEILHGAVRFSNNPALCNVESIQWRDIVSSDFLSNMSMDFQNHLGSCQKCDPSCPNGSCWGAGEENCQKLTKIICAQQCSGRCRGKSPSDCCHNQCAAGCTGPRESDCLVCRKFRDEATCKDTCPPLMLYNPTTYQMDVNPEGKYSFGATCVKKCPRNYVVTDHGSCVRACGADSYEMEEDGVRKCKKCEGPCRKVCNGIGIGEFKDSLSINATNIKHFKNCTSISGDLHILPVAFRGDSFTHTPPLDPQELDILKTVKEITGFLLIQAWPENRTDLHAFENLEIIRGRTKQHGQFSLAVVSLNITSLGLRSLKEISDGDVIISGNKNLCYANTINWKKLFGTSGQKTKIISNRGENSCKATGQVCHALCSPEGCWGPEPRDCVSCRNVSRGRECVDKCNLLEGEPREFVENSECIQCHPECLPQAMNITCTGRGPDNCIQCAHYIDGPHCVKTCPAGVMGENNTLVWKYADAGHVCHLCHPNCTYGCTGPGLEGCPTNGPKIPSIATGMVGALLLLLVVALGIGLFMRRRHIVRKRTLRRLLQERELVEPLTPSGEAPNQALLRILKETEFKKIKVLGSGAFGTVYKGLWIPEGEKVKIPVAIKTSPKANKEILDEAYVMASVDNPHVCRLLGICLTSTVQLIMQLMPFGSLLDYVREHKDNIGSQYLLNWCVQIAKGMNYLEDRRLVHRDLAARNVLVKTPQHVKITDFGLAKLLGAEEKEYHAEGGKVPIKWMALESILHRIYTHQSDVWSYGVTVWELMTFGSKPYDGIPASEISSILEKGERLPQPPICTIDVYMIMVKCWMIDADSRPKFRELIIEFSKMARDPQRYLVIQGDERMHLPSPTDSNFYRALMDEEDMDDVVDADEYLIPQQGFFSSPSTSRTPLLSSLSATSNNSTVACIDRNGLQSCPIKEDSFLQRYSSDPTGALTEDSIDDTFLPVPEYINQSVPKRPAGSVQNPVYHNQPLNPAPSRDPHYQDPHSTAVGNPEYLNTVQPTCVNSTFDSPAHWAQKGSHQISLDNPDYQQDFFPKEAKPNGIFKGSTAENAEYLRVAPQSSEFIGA
SMILES,IC50 (EGFR del19/T790M/C797S; [1]) [nM],IC50 (EGFR del19/T790M/C797S; [2]) [nM],IC50 (EGFR L858R/T790M/C797S; [3]) [nM],IC50 (EGFR del19/C797S; [4]) [nM],IC50 (EGFR del19/C797S; [5]) [nM],IC50 (EGFR L858R/C797S; [6]) [nM],IC50 (EGFR L858R/C797S; [7]) [nM],IC50 (EGFR wildtype; [8]) [nM],IC50 (EGFR wildtype; [9]) [nM],IC50 (EGFR L858R/T790M/C797S; [10]) [nM],IC50 (EGFR del19/T790M/C797S; [11]) [nM],IC50 (EGFR L858R/T790M/C797S; [12]) [nM],"IC50 (EGFR del19/C797S; IC50 del19/C797S, 100 μM ATP) [nM]","IC50 (EGFR L858R/C797S; IC50 L858R/C797S, 100 μM ATP) [nM]","IC50 (EGFR wildtype; IC50 WT, 100 μM ATP) [nM]",IC50 (EGFR del19/T790M/C797S; [13]) [nM],IC50 (EGFR L858R/T790M/C797S; [14]) [nM],IC50 (EGFR del19/C797S; [15]) [nM],IC50 (EGFR L858R/C797S; [16]) [nM],IC50 (EGFR wildtype; [17]) [nM]
"CC(C)(O)[C@H]1CC[C@@H](Nc2cc(Nc3ccnc(-c4cnn(S(=O)(=O)C5CC5)c4)n3)ncc2-c2cc(C(F)F)ccn2)CC1 [Example 78, 2-((1s,4s)-4-((6′-((2-(1-(Cyclopropylsulfonyl)-1H-pyrazol-4-yl)pyrimidin-4-yl)amino)-4-(difluoromethyl)-[2,3′-bipyridin]-4′-yl)amino)cyclohexyl)propan-2-ol]",5.5,6.8,5.4,15.8,8.8,85.5,16.6,> 10000,23.6,,,,,,,,,,,
"COC1CN(c2ccc(-c3cnc(Nc4ccnc(-c5cnn(S(=O)(=O)C6CC6)c5)n4)cc3N[C@H]3CC[C@@H](CO)CC3)nc2)C1 [Example 91, ((1s,4s)-4-((6′-((2-(1-(Cyclopropylsulfonyl)-1H-pyrazol-4-yl)pyrimidin-4-yl)amino)-5-(3-methoxyazetidin-1-yl)-[2,3′-bipyridin]-4′-yl)amino)cyclohexyl)methanol]",1.3,0.5,1.1,2.8,0.9,9.7,0.8,> 10000,2.5,0.9,,,,,,,,,,
"O=S(=O)(C1CC1)n1cc(-c2nccc(Nc3cc(N[C@H]4CC[C@@H](CO)CC4)c(-c4ccc(CO)cn4)cn3)n2)cn1 [Example 22, (6′-((2-(1-(Cyclopropylsulfonyl)-1H-pyrazol-4-yl)pyrimidin-4-yl)amino)-4′-(((1s,4s)-4-(hydroxymethyl)cyclohexyl)amino)-[2,3′-bipyridin]-5-yl)methanol]",0.3,0.3,0.2,0.2,0.1,1.1,0.2,165,0.3,0.2,,,,,,,,,,
"CC(C)(O)c1ccc(-c2cnc(Nc3ccnc(-c4cnn(S(=O)(=O)C5CC5)c4)n3)cc2N[C@H]2CC[C@@H](C(C)(C)O)CC2)nn1 [Example 88, 2-(6-(6-((2-(1-(Cyclopropylsulfonyl)-1H-pyrazol-4-yl)pyrimidin-4-yl)amino)-4-(((1s,4s)-4-(2-hydroxypropan-2-yl)cyclohexyl)amino)pyridin-3-yl)pyridazin-3-yl)propan-2-ol]",4.9,0.4,0.4,2.2,,31.1,,> 10000,15.3,0.1,,,,,,,,,,
"O=S(=O)(C1CC1)n1cc(-c2nccc(Nc3cc(N[C@H]4CC[C@@H](CCO)CC4)c(-c4ccc(CC(F)(F)F)cn4)cn3)n2)cn1 [Example 223, 2-((1s,4s)-4-((6′-((2-(1-(Cyclopropylsulfonyl)-1H-pyrazol-4-yl)pyrimidin-4-yl)amino)-5-(2,2,2-trifluoroethyl)-[2,3′-bipyridin]-4′-yl)amino)cyclohexyl)ethan-1-ol]",,,,,,,,,,,3.5,5,14.6,116,> 10000,6.4,2.4,10.2,4.4,11.5
"CN1CCC(Oc2ccc(-c3cnc(Nc4ccnc(-c5cnn(S(=O)(=O)C6CC6)c5)n4)cc3NC3CCC(F)(F)C3)nc2)CC1 (stereo not shown) [Example 143, N^6′-(2-(1-(Cyclopropylsulfonyl)-1H-pyrazol-4-yl)pyrimidin-4-yl)-N^4′-(3,3-difluorocyclopentyl)-5-((1-methylpiperidin-4-yl)oxy)-[2,3′-bipyridine]-4′,6′-diamine]",,0.1,,,1,,1.1,,7.9,0.2,,,,,,,,,,
"C[C@]1(O)CC[C@@H](Nc2cc(Nc3ccnc(-c4cnn(S(=O)(=O)C5CC5)c4)n3)ncc2-c2ccc(C(F)(F)F)nn2)CC1 [Example 51, (1s,4s)-4-((2-((2-(1-(Cyclopropylsulfonyl)-1H-pyrazol-4-yl)pyrimidin-4-yl)amino)-5-(6-(trifluoromethyl)pyridazin-3-yl)pyridin-4-yl)amino)-1-methylcyclohexan-1-ol]",0.6,0.8,0.6,10.6,3.1,16.7,1,> 10000,,0.3,,,,,,,,,,
"CC(C)(O)c1ccc(-c2cnc(Nc3ccnc(-c4cnn(S(=O)(=O)C5CC5)c4)n3)cc2N[C@H]2CC[C@@H](F)CC2)nc1 [Example 173, 2-(6′-((2-(1-(Cyclopropylsulfonyl)-1H-pyrazol-4-yl)pyrimidin-4-yl)amino)-4′-(((1s,4s)-4-fluorocyclohexyl)amino)-[2,3′-bipyridin]-5-yl)propan-2-ol]",,,,,,,,,,,,,,,,1.8,0.9,7.9,1.6,23.2

# Other lines, results leading:
IC50 (EGFR del19/T790M/C797S; [1]) [nM],IC50 (EGFR del19/T790M/C797S; [2]) [nM],IC50 (EGFR L858R/T790M/C797S; [3]) [nM],IC50 (EGFR del19/C797S; [4]) [nM],IC50 (EGFR del19/C797S; [5]) [nM],IC50 (EGFR L858R/C797S; [6]) [nM],IC50 (EGFR L858R/C797S; [7]) [nM],IC50 (EGFR wildtype; [8]) [nM],IC50 (EGFR wildtype; [9]) [nM],IC50 (EGFR L858R/T790M/C797S; [10]) [nM],IC50 (EGFR del19/T790M/C797S; [11]) [nM],IC50 (EGFR L858R/T790M/C797S; [12]) [nM],"IC50 (EGFR del19/C797S; IC50 del19/C797S, 100 μM ATP) [nM]","IC50 (EGFR L858R/C797S; IC50 L858R/C797S, 100 μM ATP) [nM]","IC50 (EGFR wildtype; IC50 WT, 100 μM ATP) [nM]",IC50 (EGFR del19/T790M/C797S; [13]) [nM],IC50 (EGFR L858R/T790M/C797S; [14]) [nM],IC50 (EGFR del19/C797S; [15]) [nM],IC50 (EGFR L858R/C797S; [16]) [nM],IC50 (EGFR wildtype; [17]) [nM],SMILES
,,,,,,,,,,0.2,0.4,1.4,7,3970,,,,,,"C[C@]1(O)CC[C@@H](Nc2cc(Nc3ccnc(-c4cnn(S(=O)(=O)C5CC5)c4)n3)ncc2-c2cc(NCCCO)ccn2)CC1 [Example 282, (1s,4s)-4-((6′-((2-(1-(Cyclopropylsulfonyl)-1H-pyrazol-4-yl)pyrimidin-4-yl)amino)-4-((3-hydroxypropyl)amino)-[2,3′-bipyridin]-4′-yl)amino)-1-methylcyclohexan-1-ol]"
,,,,,,,,,,0.1,0.1,0.1,0.4,108,0.02,0.03,0.1,0.1,0.5,"CN(C)C[C@H]1CC[C@@H](Nc2cc(Nc3ccnc(-c4cnn(S(=O)(=O)C5CC5)c4)n3)ncc2-c2cccc(F)n2)CC1 [Example 274, N^6′-(2-(1-(Cyclopropylsulfonyl)-1H-pyrazol-4-yl)pyrimidin-4-yl)-N^4′-((1s,4s)-4-((dimethylamino)methyl)cyclohexyl)-6-fluoro-[2,3′-bipyridine]-4′,6′-diamine]"
,,,,,,,,,,0.2,0.3,1,8.6,2230,,,,,,"O=S(=O)(C1CC1)n1cc(-c2nccc(Nc3cc(N[C@H]4CC[C@@H](NCCF)CC4)c(-c4cccc(F)n4)cn3)n2)cn1 [Example 273, N^6′-(2-(1-(Cyclopropylsulfonyl)-1H-pyrazol-4-yl)pyrimidin-4-yl)-6-fluoro-N^4′-((1s,4s)-4-((2-fluoroethyl)amino)cyclohexyl)-[2,3′-bipyridine]-4′,6′-diamine]"
,,,,,,,,,,0.1,0.2,0.2,0.4,176,,,,,,"C[C@]1(O)CC[C@@H](Nc2cc(Nc3ccnc(-c4cnn(S(=O)(=O)C5CC5)c4)n3)ncc2-c2ccc(C(=O)N3CCOCC3)cn2)CC1 [Example 284, (6′-((2-(1-(Cyclopropylsulfonyl)-1H-pyrazol-4-yl)pyrimidin-4-yl)amino)-4′-(((1s,4s)-4-hydroxy-4-methylcyclohexyl)amino)-[2,3′-bipyridin]-5-yl)(morpholino)methanone]"
